Key:
[1] = tested on: DG44-EPO, a CHO cell line expressing recombinant erythropoietin; assay: Cell culture potency of ethanolamine derivatives (viable cell density); assay type: cell-based, Chinese hamster; conditions: for Multiple of the ethanolamine molar equivalent yielding similar growth potential to ethanolamine: FIGS. 1A and 1B, titered up to 64× of a molar equivalent, viable cell density followed for 8 days
Description: We tested a range of ethanolamine derivatives for cell culture potency, including phosphorylethanolamine (PE), triethanolamine (TE), diethanolamine (DE), monomethylethanolamine (MME), dimethylethanolamine (DME), and N-acetylethanolaine (NAE). […] The cell line used was DG44-EPO, a CHO cell line expressing recombinant erythropoietin, that requires ethanolamine for good growth. Cells were inoculated at 3×10^5/ml and cultured bi-weekly for 3 subpassages in each condition prior to starting the assay. The assay was also inoculated at 3×10^5/ml but followed for 8 days for viable cell density from a ViCell cell counter.
Next we titered the compounds up to 64× of a molar equivalent. Both phoshorylethanolamine and NAE at about 16× the molar equivalent yielded similar growth potential to ethanolamine. In another set of experiments, NAE at about 16× the ethanolamine molar equivalent was again shown to be able to supplement an ethanolamine-sensitive line as well as ethanolamine. These latter experiments were performed in 24 well culture trays. Cells were inoculated at 1×10^5/ml and samples harvested at day 12. Because the nitrogen atom in NAE is contained within an amide structure, it is expected that NAE should be stable and can be used in place of ethanolamine in cell culture media.
The negative control is without ethanolamine. The line way above the rest should be disregarded—it is a CD CHO catalogue control, not relevant to this assay.

[2] = Microbeads protection studies during real-time ambient storage in AGT media (FIG. 8); assay type: physicochemical; conditions: FIG. 8, AGT media, ambient conditions
Description: FIG. 8: Microbeads protection studies during real-time ambient storage.

HeLa cells = assay: HeLa cell growth with insulin-dendrimer-RGD conjugate, microencapsulated or not (FIG. 7B); assay type: cell-based; conditions: for Potency and growth characteristics of HeLa cells: FIG. 7B
Description: FIG. 7B: Impact of microencapsulation of the insulin-dendrimer-RGD covalent conjugate on the growth of HeLa cell Growth.

[3] = Stability of insulin / insulin-dendrimer with and without alginate microencapsulation (FIG. 7A, FIG. 10); assay type: physicochemical
Method: Further examples for microencapsulating labile compounds other than ethanolamine are shown below. A sequestering agent like alginate was used to encapsulate or embed a dendrimer-insulin complex. The labile compound insulin was polymerized with PAMAM dendrimer, and further microencapsulated in alginate microbeads with or without PLL. Briefly, for dendrimer generation, PAMAM 2.5 (carboxylate surface groups) was used. Insulin was conjugated onto the dendrimer to which RGD sequences were also added to target the cell surface. The ratios of components in this complex was dendrimer:RGD:insulin=1:7:12.
Concentration of conjugate and alginate was adjusted as on attachment. Next conjugate was added to the alginate and mixed several minutes to distribute evenly. It was dripped through a 26 gauge needle using a 1 ml syringe into a calcium chloride bath (13.32 g/L). It was left to incubate for 30 minutes to solidify microcapsules. Then rinsed 1× in a solution also containing the dendrimer conjugate to prevent loss of component from the microcapsules. Then dried overnight in a vacuum over dessicant. The loaded microbeads were then added to AGT dry-format medium or used by adding directly into a liquid medium.
The insulin concentration of the dendrimer-insulin-RGD conjugate was estimated to be ˜2 mg/ml (pg 165/168). It needed to be diluted in half to get to ˜1 mg/ml (1000 μg/ml). […]

CC(=O)NCCO [NAE, N-acetylethanolamine]
Higher concentration needed to perform in a cell growth assay comparable to ethanolamine ([1]; FIG. 2A (Example 2)): 8-12 fold
Multiple of the ethanolamine molar equivalent able to supplement an ethanolamine-sensitive line comparable to ethanolamine ([1]; FIG. 2A cell growth titration assay (figure legend)): 16-20 ×
Multiple of the ethanolamine molar equivalent yielding similar growth potential to ethanolamine [1]: about 16 ×
Multiple of the ethanolamine molar equivalent able to supplement an ethanolamine-sensitive line as well as ethanolamine ([1]; another set of experiments, 24 well culture trays, harvested at day 12): about 16 ×

NCCO [Unencapsulated ethanolamine, ethanolamine]
Ethanolamine potency (activity) during ambient storage [2]: drops quickly
Ethanolamine potency (activity) during ambient storage ([2]; listed as unprotected ethanolamine): dropped quickly

NCCOP(=O)(O)O [phoshorylethanolamine, phosphorylethanolamine]
Multiple of the ethanolamine molar equivalent yielding similar growth potential to ethanolamine [1]: about 16 ×

alginate
Inhibition of / interference with viability or growth of HeLa cells (HeLa cells): did not interfere with viability or growth of Hela cells

insulin [insulin alone]
Potency and growth characteristics of HeLa cells (HeLa cells): equivalent potency and growth characteristics of HeLa cells

unencapsulated dendrimer (with insulin): insulin conjugated onto PAMAM 2.5 dendrimer with RGD sequences, dendrimer:RGD:insulin=1:7:12, not encapsulated
Potency of insulin at 4° C. [3]: comparable to that of insulin alone
Potency and growth characteristics of HeLa cells (HeLa cells): equivalent potency and growth characteristics of HeLa cells
